Measured values published in patent US11931365B2, “Use of PPAR-delta agonists in the treatment of disease” (Reneo Pharmaceuticals, Inc., priority 2022, dated 2024).

How the values were obtained:
PPARα = PPARα (UniProt Q4PNY3); assay: PPAR receptor transactivation assay; format: cell-based; conditions: Monkey PPARα
LXRβ = LXRβ (Homo sapiens, UniProt P55055); assay: Nuclear receptor activity
human muscle cell lines = assay: Fatty acid oxidation in muscle cell lines; format: cell-based
[1] = tested on: patients with primary mitochondrial myopathy; assay: Clinical trial for primary mitochondrial myopathy (PMM); format: in vivo, human
[2] = tested on: human retinoid X receptor (hRXR); assay: Nuclear receptor activity
[3] = tested on: patients with FAOD (CPT2, VLCAD, LCHAD, TFP); assay: Clinical trial for fatty acid oxidation disorder (FAOD); format: in vivo, human; conditions: for 12 MWT Mean Change / MFIS Total Mean Change / SF-36 Energy/Fatigue Mean Change / decrease in MFIS / increase in SF-36 energy/fatigue domain: Baseline to Week 12
Source text: Purpose: The purposes of this study were: to assess the safety and tolerability of 12 weeks treatment with Compound I, or a pharmaceutically acceptable salt or solvate thereof (e.g., Compound II), in patients with FAOD; to investigate pharmacokinetics of Compound I, or a pharmaceutically acceptable salt or solvate thereof (e.g., Compound II), in patients with FAOD treated with Compound I, or a pharmaceutically acceptable salt or solvate thereof (e.g., Compound II); to investigate the pharmacodynamics effects of Compound I, or a pharmaceutically acceptable salt or solvate thereof (e.g., Compound II), in patients with FAOD treated with Compound I, or a pharmaceutically acceptable salt or solvate thereof (e.g., Compound II).
Intervention: Patients were administered 10-200 mg of Compound I, or a pharmaceutically acceptable salt or solvate thereof (e.g., Compound II), per day as single agent or in combination. In one cohort, patients received 50 mg of Compound I, or a pharmaceutically acceptable salt or solvate thereof (e.g., Compound II), once daily for a total of 12 weeks. In another cohort, patients received 100 mg of Compound I, or a pharmaceutically acceptable salt or solvate thereof (e.g., Compound II), once daily for a total of 12 weeks.
Detailed Description: Patients were given Compound I, or a pharmaceutically acceptable salt or solvate thereof, orally once a day.
Inclusion Criteria: Confirmed diagnosis of one of the following: carnitine palmitoyl transferase II deficiency (CPT2), very long-chain Acyl-CoA dehydrogenase deficiency (VLCAD), long-chain 3-hydroxyacyl-CoA dehydrogenase deficiency (LCHAD), or trifunctional protein deficiency (TFP).
Primary Outcome Measures: Safety Endpoints included: number and severity of adverse events. Absolute values, changes from baseline at Week 12 and incidence of clinically significant changes in: laboratory safety tests; electrocardiograms; supine vital signs; evaluation of events of special interest (rhabdomyolysis) and clinically significant changes in laboratory parameters of muscle injury including total CPK, adolase, and cardiac specific troponin (cTn).
Pharmacodynamic Endpoints included: Absolute values and changes from baseline at Week 12 in: whole body fatty acid oxidation (^13CO2 production) and blood acylcarnitines (UHPLC-MS/MS method).
Secondary Outcome Measures: Assessment of the change from baseline following 12 weeks of treatment with Compound I, or a pharmaceutically acceptable salt or solvate thereof (e.g., Compound II), in: submaximal treadmill exercise tolerance; distance walked during a 12 minute walk test; 36-Item Short Form Survey (SF-36) total score and subscales (questions 3-12). Change from baseline in Fatigue Impact Scale score (every visit). Change from baseline in Brief Pain Inventory (short form) (every visit). Blood inflammatory cytokines (Multiplex Immunoassay for sE-Selectin; GM-CSF; ICAM-1/CD54; IFN alpha; IFN gamma; IL-1 alpha; IL-1 beta; IL-4; IL-6; IL-8; IL-10; IL-12p70; IL-13; IL-17A/CTLA-8; IP-10/CXCL10; MCP-1/CCL2; MIP-1alpha/CCL3; MIP-1 beta/CCL4; sP-Selectin; TNF alpha).

LXRα = LXRα (Homo sapiens, UniProt Q13133); assay: Nuclear receptor activity
Sequence of LXRα (Q13133 whole entry): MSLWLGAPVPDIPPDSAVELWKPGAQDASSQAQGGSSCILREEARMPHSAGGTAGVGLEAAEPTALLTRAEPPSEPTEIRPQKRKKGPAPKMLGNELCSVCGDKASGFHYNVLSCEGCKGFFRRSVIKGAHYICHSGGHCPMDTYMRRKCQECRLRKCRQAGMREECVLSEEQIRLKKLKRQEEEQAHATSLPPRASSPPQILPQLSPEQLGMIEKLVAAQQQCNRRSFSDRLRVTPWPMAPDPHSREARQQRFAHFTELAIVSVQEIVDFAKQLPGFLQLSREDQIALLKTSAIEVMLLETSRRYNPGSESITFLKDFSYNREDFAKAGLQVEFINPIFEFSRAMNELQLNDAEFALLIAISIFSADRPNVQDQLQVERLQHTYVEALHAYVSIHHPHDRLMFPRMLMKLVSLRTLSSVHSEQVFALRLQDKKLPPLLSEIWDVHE

FXR = FXR (Homo sapiens, UniProt Q96RI1); assay: Nuclear receptor activity
Sequence of FXR (Q96RI1 whole entry, species assumed): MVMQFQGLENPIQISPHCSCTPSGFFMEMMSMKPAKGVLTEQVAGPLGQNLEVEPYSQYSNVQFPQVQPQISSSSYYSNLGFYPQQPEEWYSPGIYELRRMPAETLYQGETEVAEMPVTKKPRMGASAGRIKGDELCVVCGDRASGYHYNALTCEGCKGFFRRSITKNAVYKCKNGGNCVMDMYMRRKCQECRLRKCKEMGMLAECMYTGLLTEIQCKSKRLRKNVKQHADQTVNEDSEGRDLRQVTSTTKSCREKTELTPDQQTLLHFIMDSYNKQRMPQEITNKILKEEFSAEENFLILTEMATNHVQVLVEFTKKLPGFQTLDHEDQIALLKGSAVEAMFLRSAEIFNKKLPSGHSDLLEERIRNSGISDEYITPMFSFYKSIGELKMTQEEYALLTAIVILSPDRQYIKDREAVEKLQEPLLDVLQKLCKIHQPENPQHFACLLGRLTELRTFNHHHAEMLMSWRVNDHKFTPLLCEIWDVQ

[4] = tested on: Angiopoietin-like 4 (ANGPTL4); assay: In vivo expression of PPAR regulated target gene in muscle; conditions: rat muscle
[5] = 100 mg once daily, 12 weeks, listed as Compound 1
[6] = 24 patients, 50 or 100 mg/day, 12 weeks

Sequence of LXRβ (P55055 whole entry): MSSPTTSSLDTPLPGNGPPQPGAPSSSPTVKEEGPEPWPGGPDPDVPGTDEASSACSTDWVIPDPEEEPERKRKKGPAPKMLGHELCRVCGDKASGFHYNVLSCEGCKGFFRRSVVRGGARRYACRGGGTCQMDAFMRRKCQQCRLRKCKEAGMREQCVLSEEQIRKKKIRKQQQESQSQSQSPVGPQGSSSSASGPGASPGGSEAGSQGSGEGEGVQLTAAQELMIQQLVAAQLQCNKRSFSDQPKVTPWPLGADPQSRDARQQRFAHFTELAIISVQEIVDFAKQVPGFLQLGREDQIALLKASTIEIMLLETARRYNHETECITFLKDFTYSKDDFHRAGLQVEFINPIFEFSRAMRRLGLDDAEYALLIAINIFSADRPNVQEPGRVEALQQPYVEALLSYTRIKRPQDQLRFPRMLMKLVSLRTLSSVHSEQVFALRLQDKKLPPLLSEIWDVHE

Structure (SMILES): Cc1cc(OC/C=C(/c2ccc(F)cc2)c2ccc(C#CCN3CCOCC3)cc2)ccc1OCC(=O)O [Compound I, (E)-2-(4-((3-(4-fluorophenyl)-3-(4-(3-morpholinoprop-1-yn-1-yl)phenyl)allyl)oxy)-2-methylphenoxy)acetic acid]
- EC50 (PPARα): > 1000 nM
- activity on nuclear receptor LXRβ (LXRβ): did not show any
- fatty acid oxidation (human muscle cell lines): dose-dependent increase
- Modified Fatigue Impact Scale scores ([1]; 100 mg once daily, 12 weeks): trends towards increases
- brief pain inventory (BPI) score ([1]; 100 mg once daily, 12 weeks): Decreases
- distance walked during a 12-minute walk test ([1]; 100 mg once daily, 12 weeks): able to increase the distance walked
- peak VO2 ([1]; 100 mg once daily, 12 weeks): trends towards increases
- brief pain inventory (BPI) score [1, 5]: decreased
- distance walked during a 12-minute walk test [1, 5]: Improvements
- tolerability ([1]; PMM patients): well tolerated
- hRXR activity [2]: did not show any
- distance walked during a 12-minute walk test ([3]; 50 mg once daily, 12 weeks): able to increase distance walked
- exhaled 13CO2 ([3]; 50 mg once daily, 12 weeks): trend towards increases
- heart rate during the last ten minutes of exercise ([3]; 50 mg once daily, 12 weeks): decreases
- TEAEs reported as study drug related [3, 6]: 30%
- patients discontinuing treatment [3, 6]: 12.5%
- patients reporting rhabdomyolysis (most common TEAE) [3, 6]: 16.7%
- patients reporting treatment-emergent adverse events (TEAEs) [3, 6]: 75%
- severity of the majority of study drug related TEAEs [3, 6]: mild or moderate
- 12 MWT Mean Change ([3]; CPT2 subgroup): 51.9 meters
- MFIS Total Mean Change ([3]; CPT2 subgroup): 1.0
- SF-36 Energy/Fatigue Mean Change ([3]; CPT2 subgroup): 0.8
- tolerability ([3]; FAOD patients): well tolerated
- 12 MWT Mean Change ([3]; LCHAD subgroup): 73.7 meters
- MFIS Total Mean Change ([3]; LCHAD subgroup): −9.8
- SF-36 Energy/Fatigue Mean Change ([3]; LCHAD subgroup): 19.5
- decrease in MFIS ([3]; LCHAD subgroup): 9.8 point
- increase in SF-36 energy/fatigue domain ([3]; LCHAD subgroup): 19.5 point
- decrease in MFIS ([3]; TFP subgroup (n = 2)): 8.0 point
- increase in SF-36 energy/fatigue domain ([3]; TFP subgroup (n = 2)): 25.0 point
- 12 MWT Mean Change ([3]; VLCAD subgroup): −36.7 meters
- MFIS Total Mean Change ([3]; VLCAD subgroup): 15.6
- SF-36 Energy/Fatigue Mean Change ([3]; VLCAD subgroup): −17.8
- activity on nuclear receptor LXRα (LXRα): did not show any
- activity on nuclear receptor FXR (FXR): did not show any
- expression of ANGPTL4 [4]: increased the expression
